Target: Protein kinase C, PKC; classical/novel
Experiment: Binding to PKC in 3[H]-[…] assay
Assay type: protein assay

- IC50: 400 nM
Structure (SMILES): CC(C)[C@@H]1Nc2c3c(cc4[nH]cc(c24)C[C@@H](CO)NC1=O)C(C)(C)CCC3(C)C

From ChEMBL document CHEMBL1126213, “Synthesis and biological activity of a 5,6-substituted teleocidin” (Bioorg Med Chem Lett, 1992)
